# Assays:
# [1] = target: T1, recombinant human plasminogen activator inhibitor-1 (Homo sapiens, UniProt P05121); assay: Primary screen for the PAI-1 inhibition (residual tPA activity, Spectrozyme-tPA chromogenic substrate); format: biochemical; settings: pH 6.6 buffer, 140 nM PAI-1, 70 nM tPA; for Inhibition (%) (100 uM): test compound 100 uM (cell annotated "(100 uM)" instead of 25 uM); for inhibition at 25 µM / Inhibition @25 uM (%): test compound 25 uM
# T1 construct: purchased Molecular Innovations, Royal Oak, Mich
# Method: Primary Screen for the PAI-1 Inhibition
# Test compounds were dissolved in DMSO at a final concentration of 10 mM, then diluted 100× in physiologic buffer. The inhibitory assay was initiated by the addition of the test compound (1-100 μM final concentration, maximum DMSO concentration of 0.2%) in a pH 6.6 buffer containing 140 nM recombinant human plasminogen activator inhibitor-1 (Molecular Innovations, Royal Oak, Mich.). Following a 1 hour incubation at room temperature, 70 nM of recombinant human tissue plasminogen activator (tPA) was added, and the combination of the test compound, PAI-1 and tPA was incubated for an additional 30 minutes. Following the second incubation, Spectrozyme-tPA (American Diagnostica, Greenwich, Conn.), a chromogenic substrate for tPA, was added and absorbance read at 405 nm at 0 and 60 minutes. Relative PAI-1 inhibition was equal to the residual tPA activity in the presence of the test compound and PAI-1. Control treatments included the complete inhibition of tPA by PAI-1 at the molar ratio employed (2:1), and the absence of any effect of the test compound on tPA alone.
# human PAI-1 = human PAI-1 (Homo sapiens, UniProt P05121); assay: Assay for determining IC50 of inhibition of PAI-1 (active PAI-1 bound to tPA-coated plate, 33B8 antibody detection); format: biochemical; settings: human PAI-1 50 ng/ml, pH 7.5, tPA-coated plate
# Method: Assay for Determining IC50 OF Inhibition of PAI-1
# This assay was based upon the non-SDS dissociable interaction between tPA and active PAI-1. Assay plates were initially coated with human tPA (10 μg/ml). The test compounds were dissolved in DMSO at 10 mM, then diluted with physiologic buffer (pH 7.5) to a final concentration of 1-50 μM. The test compounds were incubated with human PAI-1 (50 ng/ml) for 15 minutes at room temperature. The tPA-coated plate was washed with a solution of 0.05% Tween 20 and 0.1% BSA, then the plate is blocked with a solution of 3% BSA. An aliquot of the test compound/PAI-1 solution was then added to the tPA-coated plate, incubated at room temperature for 1 hour, and washed. Active PAI-1 bound to the plate was assessed by adding an aliquot of a 1:1000 dilution of the 33B8 monoclonal antibody against human PAI-1, and incubating the plate at room temperature for 1 hour (Molecular Innovations, Royal Oak, Mich.). The plate was again washed, and a solution of goat anti-mouse IgG-alkaline phosphatase conjugate is added at a 1:50,000 dilution in goat serum. The plate was incubated 30 minutes at room temperature, washed, and a solution of alkaline phosphatase substrate was added. The plate was incubated 45 minutes at room temperature, and color development was determined at OD405 nm. The quantitation of active PAI-1 bound to tPA at varying concentrations of the test compound was used to determine the IC50. Results were analyzed using a logarithmic best-fit equation. The assay sensitivity was 5 ng/ml of human PAI-1 as determined from a standard curve ranging from 0-100 ng/ml.
# human PAI-1, sequence (P05121 24-402): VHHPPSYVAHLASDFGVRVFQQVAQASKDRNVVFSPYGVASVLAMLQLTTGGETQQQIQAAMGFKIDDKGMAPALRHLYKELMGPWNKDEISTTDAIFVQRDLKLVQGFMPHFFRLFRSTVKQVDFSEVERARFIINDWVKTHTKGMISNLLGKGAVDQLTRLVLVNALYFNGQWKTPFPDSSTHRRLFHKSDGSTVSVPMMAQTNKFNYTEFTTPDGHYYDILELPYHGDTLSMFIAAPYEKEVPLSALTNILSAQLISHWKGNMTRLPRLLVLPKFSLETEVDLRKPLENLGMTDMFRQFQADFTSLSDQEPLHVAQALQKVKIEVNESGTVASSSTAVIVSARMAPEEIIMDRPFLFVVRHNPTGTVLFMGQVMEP
# T1 sequence (P05121 24-402): as above
Molecule,Inhibition (%) (100 uM) [1],inhibition at 25 µM [1] [%],further results
5-[3-(5-Chloro-3-carboxy(oxo)methyl-1H-indol-1-yl)phenoxymethyl]furan-2-carboxylic acid ethyl ester [Example 17],49,,
"N#Cc1ccc(COc2ccc(-n3cc(C(=O)C(=O)O)c4ccccc43)cc2)cc1 [Example 1, (1-{4-[(4-Cyanobenzyl)oxy]phenyl}-1H-indol-3-yl)(oxo)acetic acid]",,23,
"COc1cccc(COc2ccc(-n3cc(C(=O)C(=O)O)c4ccccc43)cc2)c1 [Example 2, {1-[4-(3-Methoxybenzyloxy)phenyl]-1H-indol-3-yl}(oxo)acetic acid]",,43,
"N#Cc1ccc(COc2ccc(-n3cc(C(=O)C(=O)O)c4cc(F)ccc43)cc2)cc1 [Example 4, {1-[4-(4-Cyanobenzyloxy)phenyl]-5-fluoro-1H-indol-3-yl}(oxo)acetic acid]",40,,
"COc1cc(COc2ccc(-n3cc(C(=O)C(=O)O)c4cc(F)ccc43)cc2)cc(OC)c1 [Example 5, {1-[4-(3,5-Dimethoxybenzyloxy)phenyl]-5-fluoro-1H-indol-3-yl}(oxo)acetic acid]",,26,
"Cc1ccc2c(c1)c(C(=O)C(=O)O)cn2-c1ccc(OCc2cccc(Cl)c2)cc1 [Example 6, {1-[4-(3-Chlorobenzyloxy)phenyl]-5-methyl-1H-indol-3-yl}(oxo)acetic acid]",,54,IC50 (human PAI-1): > 25 µM
"Cc1ccc2c(c1)c(C(=O)C(=O)O)cn2-c1ccc(OCc2ccc(C(C)(C)C)cc2)cc1 [Example 7, {1-[4-(4-tert-Butylbenzyloxy)phenyl]-5-methyl-1H-indol-3-yl}(oxo)acetic acid]",,62,
"Cc1ccc2c(c1)c(C(=O)C(=O)O)cn2-c1ccc(OCc2ccc(Cl)cc2Cl)cc1 [Example 8, {1-[4-(2,4-Dichlorobenzyloxy)phenyl]-5-methyl-1H-indol-3-yl}(oxo)acetic acid]",34,,
"N#Cc1ccc(COc2cccc(-n3cc(C(=O)C(=O)O)c4cc(Cl)ccc43)c2)cc1 [Example 9, {5-Chloro-1-[3-(4-cyanobenzyloxy)phenyl]-1H-indol-3-yl}(oxo)acetic acid]",,44,
"COc1cc(COc2cccc(-n3cc(C(=O)C(=O)O)c4cc(Cl)ccc43)c2)cc(OC)c1 [Example 10, {5-Chloro-1-[3-(3,5-dimethoxybenzyloxy)phenyl]-1H-indol-3-yl}(oxo)acetic acid]",,1,
"O=C(O)C(=O)c1cn(-c2ccc(OCc3c(F)c(F)c(C(F)(F)F)c(F)c3F)cc2)c2ccccc12 [Example 11, {1-[4-(2,3,5,6-tetrafluoro-4-trifluoromethylbenzyloxy)phenyl]1H-indol-3-yl}(oxo)acetic acid]",,66,
"O=C(O)C(=O)c1cn(-c2ccc(OCc3ccc(-c4csnn4)cc3)cc2)c2ccccc12 [Example 12, {1-[4-(4-[1,2,3]thiadiazol-4-ylbenzyloxy)phenyl]-1H-indol-3-yl}(oxo)acetic acid]",32,,
"O=C(O)C(=O)c1cn(-c2ccc(OCc3cc(Cl)nc(Cl)c3)cc2)c2ccccc12 [Example 13, {1-[4-(2,6-Dichloropyridin-4-ylmethoxy)phenyl]1H-indol-3-yl}(oxo)acetic acid]",,39,
"CCOC(=O)c1ccc(COc2ccc(-n3cc(C(=O)C(=O)O)c4cc(F)ccc43)cc2)o1 [Example 14, 5-[4-(5-Fluoro-3-carboxy(oxo)methyl-1H-indol-1-yl)phenoxymethyl]furan-2-carboxylic acid ethyl ester]",,,Inhibition @25 uM (%) [1]: 43%
"Cc1ccc2c(c1)c(C(=O)C(=O)O)cn2-c1ccc(OCc2cc(Cl)nc(Cl)c2)cc1 [Example 15, {1-[4-(2,6-dichloropyridin-4-ylmethoxy)phenyl]-5-methyl-1H-indol-3-yl}(oxo)acetic acid]",,5,
"O=C(O)C(=O)c1cn(-c2cccc(OCc3c(F)c(F)c(C(F)(F)F)c(F)c3F)c2)c2ccc(Cl)cc12 [Example 16, {5-Chloro-1-[3-(2,3,5,6-tetrafluoro-4-trifluoromethylbenzyloxy)phenyl]1H-indol-3-yl}(oxo)acetic acid]",,75,IC50 (human PAI-1): > 25 µM
"O=C(O)C(=O)c1cn(-c2cccc(OCc3ccc(-c4csnn4)cc3)c2)c2ccc(Cl)cc12 [Example 18, {5-Chloro-1-[3-(4-[1,2,3]thiadiazol-4-ylbenzyloxy)phenyl]-1H-indol-3-yl}(oxo)acetic acid]",,45,
"O=C(O)C(=O)c1cn(-c2cccc(OCc3cc(Cl)nc(Cl)c3)c2)c2ccc(Cl)cc12 [Example 19, {5-Chloro-1-[3-(2,6-dichloropyridin-4-ylmethoxy)phenyl]-1H-indol-3-yl}(oxo)acetic acid]",,46,
"O=C(O)C(=O)c1cn(-c2ccc(OC(F)(F)F)cc2)c2ccc(-c3ccc(OC(F)(F)F)cc3)cc12 [Example 20, [1,5-Bis-(4-trifluoromethoxy-phenyl)-1H-indol-3-yl]-oxo-acetic acid]",,56,IC50 (human PAI-1): > 25 µM
O=C(O)C(=O)c1cn(Cc2ccc(F)cc2)c2ccc(OCCc3ccc(F)cc3)cc12 [Example 21],,6,melting point: 171 to 173 °C
"O=C(O)C(=O)c1cn(Cc2ccccc2)c2ccc(OCc3ccccc3)cc12 [Example 22, (1-Benzyl-5-benzyloxy-1H-indol-3-yl)-oxo-acetic acid]",,13,
"O=C(O)C(=O)c1cn(Cc2ccccc2)c2ccc(Oc3ccc(C(F)(F)F)cc3Cl)cc12 [Example 23, [1-Benzyl-5-(2-chloro-4-trifluoromethyl-phenoxy)-1H-indol-3-yl](oxo)acetic acid]",,52,IC50 (human PAI-1): 12.3 µM; melting point: 152 to 154 °C
"C=CCOc1ccc2c(c1)c(C(=O)C(=O)O)cn2CC1CCC1 [Example 24, (5-Allyloxy-1-cyclobutylmethyl-1H-indol-3-yl)-oxo-acetic acid]",13,,
"C=CCOc1ccc2c(c1)c(C(=O)C(=O)O)cn2CCc1ccccc1 [Example 25, (5-Allyloxy-1-phenethyl-1H-indol-3-yl)-oxo-acetic acid]",8,,
"C=CCOc1ccc2c(c1)c(C(=O)C(=O)O)cn2Cc1ccc2c(c1)OCO2 [Example 26, (5-Allyloxy-1-benzo[1,3]dioxol-5-ylmethyl-1H-indol-3-yl)-oxo-acetic acid]",8,,
"C=CCOc1ccc2c(c1)c(C(=O)C(=O)O)cn2CCc1ccc(OC)cc1 [Example 27, {5-Allyloxy-1-[2-(4-methoxy-phenyl)-ethyl]-1H-indol-3-yl}-oxo-acetic acid]",16,,
"C=CCOc1ccc2c(c1)c(C(=O)C(=O)O)cn2CCc1cccc2ccccc12 [Example 28, [5-Allyloxy-1-(2-naphthalen-1-yl-ethyl)-1H-indol-3-yl]-oxo-acetic acid]",,12,
"C=CCOc1ccc2c(c1)c(C(=O)C(=O)O)cn2CCc1cccc(C(F)(F)F)c1 [Example 29, {5-Allyloxy-1-[2-(3-trifluoromethylphenyl)-ethyl]-1H-indol-3-yl}-oxo-acetic acid]",29,,
"C=CCOc1ccc2c(c1)c(C(=O)C(=O)O)cn2CCc1ccc(Br)cc1 [Example 30, {5-Allyloxy-1-[2-(4-bromophenyl)-ethyl]-1H-indol-3-yl}-oxo-acetic acid]",,29,
{1-[4-(3-Chlorobenzyloxy) phenyl]-1H-indol-3-yl}(oxo)acetic acid [Example 3],,,Inhibition @25 uM (%) [1]: 78%; IC50 (human PAI-1): > 25 µM

# From patent publication US7674818B2, “Aryl, aryloxy, alkyloxy substituted 1H-indol-3-yl glyoxylic acid derivatives as inhibitors of plasminogen activator inhibitor-1 (PAI-1)” (Wyeth LLC, priority 2002, dated 2010)
